Laboratory results from patent US6465443B2, “Method for inhibiting bone resorption” (Merck & Co., Inc., priority 1997, dated 2002).

Columns and labels:
esophagus = conditions: oral administration, patients; cited from earlier work
canine esophagus tissue = assay: Esophageal irritation potential, dog model (esophageal infusion, histopathology); format: in vivo; conditions: for Esophageal irritation potential: low dosages on consecutive days (Group 7, Group 8)
Description: The esophageal irritation potential of the bisphosphonates is evaluated using a dog model.
The following solutions are prepared:
(1) simulated gastric juice (pH about 2), i.e. the control solution.
(5) simulated gastric juice (pH about 2) containing about 0.20 mg/mL of risedronate sodium on a risedronic acid active basis.
(6) simulated gastric juice (pH about 2) containing about 4.0 mg/mL of tiludronate disodium on a tiludronic acid active basis.
The simulated gastric juice is prepared by dissolving about 960 mg of pepsin (L-585,228000B003, Fisher Chemical) in about 147 mL of 0.90 (wt %) NaCl (aqueous), adding about 3 mL of 1.0 M HCl (aqueous), and adjusting the volume to about 300 mL with deionized water. The pH of the resulting solution is measured and if necessary is adjusted to about 2 using 1.0 M HCl (aqueous) or 1.0 M NaOH (aqueous).
The animals used in the experiments are anesthetized and administered about 50 mL of the appropriate solution over about 30 minutes by infusion into the esophagus using an infusion pump and a rubber catheter. The following treatment experiments are run:
Group 1: This control group contains four animals. Each animal is administered a dosage of about 50 mL of simulated gastric juice [solution (1)] on each of five consecutive days. […]
Group 2: This group contains four animals. […]
Group 3: This group contains five animals. […] The animals are sacrificed about 24 hours after the dose is administered.
Group 4: This group contains five animals. […] The animals are sacrificed about 7 days after the dose is administered.
Group 5: This group contains six animals. […] The animals are administered a total of four dosages. The animals are sacrificed about 7 days after the last dose is administered.
Group 6: This group contains six animals. […] The animals are administered a total of eight dosages. The animals are sacrificed about four days after the last dose is administered.
Group 7: This group contains eight animals. Each animal is administered a dosage of about 50 mL of simulated gastric juice containing about 0.20 mg/mL of risedronate [solution (5)] on each of five consecutive days. […]
Group 8: This group contains four animals. Each animal is administered a dosage of about 50 mL of simulated gastric juice containing about 4.0 mg/mL of tiludronate [solution (6)] on each of five consecutive days. […]
The esophagus from each sacrificed animal is removed and prepared for histopathology using standard techniques by embedding the tissue in paraffin, staining with hematoxylin and eosin. The sections are examined microscopically.

bone mineralization = conditions: doses used clinically; cited from earlier work
bone resorption = conditions: early postmenopausal bone loss (Mortensen et al.); cited from earlier work
[1] = Group 4: 0.80 mg/mL, 1X, sacrifice 7 days after dosing

NCCC(O)(P(=O)(O)O)P(=O)(O)O [pamidronate, 3-amino-1-hydroxypropylidene-1,1-bisphosphonic acid]
Adverse gastrointestinal (esophageal) effects associated with use (esophagus): associated with esophageal ulcers

O=P(O)(O)C(Sc1ccc(Cl)cc1)P(=O)(O)O [Tiludronate, (4-chlorophenyl)thiomethane-1,1-disphosphonic acid]
Histo-pathology (esophagus) (canine esophagus tissue; Group 8 (n = 4): 4.0 mg/mL, about 50 mL in simulated gastric juice, 1X daily for 5 days, sacrifice 24 hours after last dosing (table; text: immediately)): Slight submucosal
Histo-pathology (esophagus) (canine esophagus tissue; Group 8 (n = 4): 4.0 mg/mL, about 50 mL in simulated gastric juice, 1X daily for 5 days, sacrifice 24 hours after last dosing (table; text: immediately), listed as tiludronate): slight ulceration of the epithelial surface and slight submucosal inflammation and vacuolation
Animals with slight submucosal inflammation and vacuolation (canine esophagus tissue; Group 8: 4.0 mg/mL, 1X daily for 5 days): vacuolation (3 of 4
Esophageal irritation potential (canine esophagus tissue): high

CC(O)(P(=O)(O)O)P(=O)(O)O [etidronate, 1-hydroxyethane-1,1-diphosphonic acid]
Effect on bone mineralization (bone mineralization): impairs mineralization at doses used clinically

O=P(O)(O)C(O)(Cc1cccnc1)P(=O)(O)O [Risedronate, 1-hydroxy-2-(3-pyridinyl)-ethylidene-1,1-bisphosphonic acid]
Antiresorptive efficacy of cyclic dosing relative to continuous daily dosing (bone resorption): cyclic dosing is actually less effective than continuous daily dosing
Histo-pathology (esophagus) (canine esophagus tissue; Group 7 (n = 8): 0.20 mg/mL, about 50 mL in simulated gastric juice, 1X daily for 5 days, sacrifice immediately after last dosing, listed as risedronate): deep ulceration of the epithelial surface and marked submucosal inflammation and vacuolation
Animals with deep ulceration of epithelial surface (canine esophagus tissue; Group 7: 0.20 mg/mL, 1X daily for 5 days, sacrifice immediately after last dosing): (4 of 8 animals).
Esophageal irritation potential (canine esophagus tissue): high

NCCCC(O)(P(=O)(O)O)P(=O)(O)O [Alendronate, 4-amino-1-hydroxybutylidene-1,1-bisphosphonic acid monosodium trihydrate]
Adverse gastrointestinal (esophageal) effects associated with use (esophagus): associated with esophagitis and/or esophageal ulcers
Histo-pathology (esophagus) (canine esophagus tissue; Group 2 (n = 4): 0.20 mg/mL, about 50 mL in simulated gastric juice pH about 2, 1X daily for 5 days, sacrifice immediately after last dosing, listed as alendronate, monosodium trihydrate): deep ulceration of the epithelial surface and marked submucosal inflammation and vacuolation
Histo-pathology (esophagus) (canine esophagus tissue; Group 3 (n = 5): 0.80 mg/mL, about 50 mL in simulated gastric juice, 1X, sacrifice 24 hours after dosing, listed as alendronate, monosodium trihydrate): intact epithelial surface with very slight submucosal inflammation and vacuolation
Histo-pathology (esophagus) (canine esophagus tissue; Group 3 (n = 5): 0.80 mg/mL, about 50 mL in simulated gastric juice, 1X, sacrifice 24 hours after dosing, monosodium trihydrate): Intact epithelial
Histo-pathology (esophagus) (canine esophagus tissue; Group 4 (n = 5): 0.80 mg/mL, about 50 mL in simulated gastric juice, 1X, sacrifice 7 days after dosing, listed as alendronate, monosodium trihydrate): intact epithelium with either minimal inflammation (two of the five animals) or no inflammation (three of the five animals) and no vacuolation
Animals with minimal inflammation (canine esophagus tissue; [1]): inflammation (2 of 5
Animals with no inflammation (canine esophagus tissue; [1]): inflammation (3 of 5
Histo-pathology (esophagus) (canine esophagus tissue; Group 5 (n = 6): 0.80 mg/mL, about 50 mL in simulated gastric juice, 1X weekly for a total of 4 doses, sacrifice 7 days after last dosing, listed as alendronate, monosodium trihydrate): normal with an intact epithelium and absence of inflammatory cells in the submucosa
Histo-pathology (esophagus) (canine esophagus tissue; Group 5 (n = 6): 0.80 mg/mL, about 50 mL in simulated gastric juice, 1X weekly for a total of 4 doses, sacrifice 7 days after last dosing, monosodium trihydrate): Intact epithelium with
Histo-pathology (esophagus) (canine esophagus tissue; Group 6 (n = 6): 0.40 mg/mL, about 50 mL in simulated gastric juice, 2X weekly for 4 weeks, sacrifice immediately after last dosing (table; text: about four days after), listed as alendronate, monosodium trihydrate): deep ulceration of the epithelial surface and marked submucosal inflammation and vacuolation
